The MIC is the lowest concentration found to suppress growth. Read a high MIC as a less susceptible organism.

Molecules are shown by their SMILES. ≈ marks a conversion by molar mass, not a printed value.

The test system of this experiment is Mycobacterium tuberculosis variant bovis. Nature of the experiment: Antibacterial activity against Mycobacterium bovis. Type of experiment: functional.

The compound `Cc1cn([C@@H]2C[C@H](O)[C@@H](CNC(=S)Nc3ccc(Cl)c(Cl)c3)O2)c(=O)[nH]c1=O` gave an MIC of 25 µg/mL (≈ 56.1 µM).

(Values after ChEMBL document CHEMBL1955766, “Structure guided development of novel thymidine mimetics targeting Pseudomonas aeruginosa thymidylate kinase: from hit to lead generation” (J Med Chem, 2012).)
